According to US5336757A, “Antibacterial peptide and methods of use” (Harbor Branch Oceanographic Institution, Inc., priority 1992, dated 1994):
Converted amounts (≈) assume the structure as drawn. Bridge positions count the residues as written; N and C are the ends. Square brackets hold non-standard residues; d marks the D form. Peptide text beside a SMILES is read from it. * marks the point of attachment. Phe(4-Br) = N[C@@H](Cc1ccc(Br)cc1)C(=O)O; Ile(3-Me) = CCC(C)(C)[C@H](N)C(=O)O; Cya = N[C@@H](CS(=O)(=O)O)C(=O)O; NMeQ = CN[C@@H](CCC(N)=O)C(=O)O; Tle = CC(C)(C)[C@H](N)C(=O)O; For = O=C*

Experiments:
Bacillus subtilis = type: cell-based
Experimental: Bacillus subtilis: Standard spore stocks (ATCC strain 6633) were purchased from Difco (#0453-36-0). Two-fold dilutions of polydiscamide A were prepared in 50 μL volumes of a suitable solvent using 96-well microtiter plates. In a separate 96-well plate, 35 μL volumes of Mueller-Hinton broth were placed in each well. The compound (5 μL) was then transferred to the broth. An inoculum of B. subtilis in the appropriate medium was added to give a cell density of 1000 cells/mL and a total volume of 50 μL. Plates were incubated at 37° C. overnight.

[1] = test system: A549 human lung carcinoma cells; details: 72 h
Experimental: P388 murine leukemia cells obtained from Dr. J. Mayo, National Cancer Institute, Bethesda, Md., and A549 cells were obtained from the American Type Culture Collection, Rockville, Md. The P388 cells were maintained in Roswell Park Memorial Institute medium 1640 (RPMI-1640) supplemented with 10% horse serum and cultured in plastic tissue culture flasks and kept in an incubator at 37° C. in humidified air containing 5% CO2. The A549 cells were similarly maintained in RPMI-1640 but supplemented with 10% fetal bovine serum. Antibiotic-free stock cultures of P388 and A549 cells were subcultured to 10^5 cells/ml by dilutions in fresh growth medium at 2 to 5 day intervals. […]
To quantitate the effects of polydiscamide A or its analogs on cell proliferation, 75 μl warm growth medium containing 5 mg/ml MTT was added to each well. […] To spectrophotometrically quantitate formation of reduced formazan, plates were centrifuged (900 g, 5 minutes), culture fluids were removed by aspiration, and 200 μl of acidified isopropanol (2 ml concentrated HCl/L isopropanol) added per well. The absorbance of the resulting solutions was measured at 570 nm with a plate reader (MR700 Microplate Reader, Dynatech Laboratories, Chantilly, Va.).

[2] = test system: P388 murine leukemia cells; details: 48 h
Experimental: Polydiscamide A was tested for toxicity against P388 murine leukemia cells and A549 human lung carcinoma cells.
The P388 cells were maintained in Roswell Park Memorial Institute medium 1640 (RPMI-1640) supplemented with 10% horse serum and cultured in plastic tissue culture flasks and kept in an incubator at 37° C. in humidified air containing 5% CO2. The A549 cells were similarly maintained in RPMI-1640 but supplemented with 10% fetal bovine serum. Antibiotic-free stock cultures of P388 and A549 cells were subcultured to 10^5 cells/ml by dilutions in fresh growth medium at 2 to 5 day intervals. […]
To quantitate the effects of polydiscamide A or its analogs on cell proliferation, 75 μl warm growth medium containing 5 mg/ml MTT was added to each well. […] To spectrophotometrically quantitate formation of reduced formazan, plates were centrifuged (900 g, 5 minutes), culture fluids were removed by aspiration, and 200 μl of acidified isopropanol (2 ml concentrated HCl/L isopropanol) added per well. The absorbance of the resulting solutions was measured at 570 nm with a plate reader (MR700 Microplate Reader, Dynatech Laboratories, Chantilly, Va.). […]

MIC against B. subtilis (Bacillus subtilis): 3.1 µg/mL (≈ 1.81 µM) | IC50 against cultured human lung carcinoma cells (A549) [1]: 0.66 µg/mL (≈ 0.386 µM) | IC50 against mouse leukemia cells (P388) [2]: 0.96 µg/mL (≈ 0.561 µM)
Compound: CCC(C)(C)[C@H](NC(=O)[C@@H](NC(=O)[C@@H]1CCCN1C(=O)[C@H](Cc1ccc(Br)cc1)NC(=O)[C@H](C)NC=O)C(C)(C)C)C(=O)N[C@@H](Cc1c[nH]c2ccccc12)C(=O)N[C@@H](CCCNC(=N)N)C(=O)N[C@@H](CS(=O)(=O)O)C(=O)N[C@@H]1C(=O)N(C)[C@@H](CCC(N)=O)C(=O)N[C@@H](C(C)C)C(=O)N2CCC[C@H]2C(=O)N[C@@H](CC(N)=O)C(=O)O[C@@H]1C [polydiscamide A] (For-A[Phe(4-Br)]P[Tle][Ile(3-Me)]WR[Cya]T[NMeQ]VPN; ester 9-C)
